These results are taken from patent EP0537947A1, “Naphthoquinone derivatives for the treatment of parasitic infections” (THE WELLCOME FOUNDATION LIMITED, priority 1991, dated 1993).

What is called ED50 is the midpoint of the dose-response relation.

One data set concerns Plasmodium yoelii. As to the kind of experiment: In vivo activity against Plasmodium yoelii in mice (modified 4-day suppressive test). As for the experimental part:
Compounds A and B were administered orally and intravenously, and compound (I) was administered orally only, in the manner described below.
The test method is a modified version of the 4-day suppressive test. The YM strain of P.yoelii was maintained in mice by twice weekly passage. Infected blood was collected and diluted with normal saline to give an inoculum of 3x10⁶ parasitized enythrocytes/ml. On the morning of Day 1 the test animals (male CD-1 mice weighing 18-20g) were infected intravenously via the tail vein with 0.1ml of inoculum/mouse.
Test compounds A, B and (I) were formulated by ball milling in 0.25% celacol with stainless steel balls. The total requirement was formulated at the beginning of a test and thereafter stored at 4°C.
Each test compound was administered orally (p.o.) to four or more usually five groups of mice, each group receiving a different dose level (dilution). A further group of mice was administered celacol only, as a control (ie. a total of 30 mice are used to obtain each ED₅₀). The mice were dosed orally in the late afternoon of Day 1 and in the early morning and late afternoon of days 2, 3 and 4, giving a total of seven doses in four days or 24 hours post-infection i.e. on day 2 when given as a single dose.
I.v. formulations of test Compounds A and B were prepared by dissolving the compound in water immediately before use, and administered via the tail vein as a single dose 24 hours post-infection, i.e. on day 2.
On the morning of day 5 smears of tail blood were prepared from each mouse and the parasitaemia counted. Data were analysed to yield ED₅₀ values by the best fit to a sigmoidal dose response curve.

A further data set in a line: Solubility in water. In kind it is physicochemical. Particulars: statement in words.
Where [1] appears, read: Plasmodium yoelii, po, dosing schedule 1 x p.o. (single dose 24 hours post-infection), YM strain of P.yoelii, male CD-1 mice, parasitaemia on day 5, read-out: ED50.

Counter-ions that a name gives are not always drawn. Like-named read-outs stand apart in the source and are kept apart here.

“3-[trans-4-(4-Chlorophenyl)cyclohexyl]-1,4-dioxo-2-naphthylphosphate bis diethanolamine salt [Compound (A)]”: the “Weight adjusted ED50” value with Plasmodium yoelii (7 x p.o., calculated in terms of the amount of compound (I) administered) is 0.056 mg/kg. The compound also displayed an ED50 in the data set with Plasmodium yoelii (dosing schedule 7 x p.o. (seven doses in four days), YM strain of P.yoelii, male CD-1 mice, parasitaemia on day 5) of 0.1 mg/kg.

Consider `O=C1C(O)=C([C@H]2CC[C@H](c3ccc(Cl)cc3)CC2)C(=O)c2ccccc21` [Compound (I), 2-[trans-4-(4-Chlorophenyl)cyclohexyl]-3-hydroxy-1,4-naphthoquinone, reference compound], for which the ED50 was found to be 0.09 mg/kg with Plasmodium yoelii (setting [1]) and 0.03 mg/kg with Plasmodium yoelii (Plasmodium yoelii, po, dosing schedule 7 x p.o. (seven doses in four days), YM strain of P.yoelii, male CD-1 mice, parasitaemia on day 5, read-out: ED50).

With `O=C1C(OP(=O)(O)O)=C([C@H]2CC[C@H](c3ccc(Cl)cc3)CC2)C(=O)c2ccccc21` [Compound (B), 3-[trans--4-(4-Chlorophenyl)cyclohexyl]-1,4-dioxo-2-naphthylphosphate N-methylglucosamine salt], the median effective dose (ED50) in the data set on Plasmodium yoelii (Plasmodium yoelii, iv, 1 x i.v., calculated in terms of the amount of compound (I) administered, read-out: Weight adjusted ED50) was 0.12 mg/kg; in the data set on Plasmodium yoelii (Plasmodium yoelii, iv, dosing schedule 1 x i.v. (single dose 24 hours post-infection, dissolved in water), YM strain of P.yoelii, male CD-1 mice, parasitaemia on day 5, read-out: ED50), 0.27 mg/kg; in the data set on Plasmodium yoelii (Plasmodium yoelii, po, 1 x p.o., calculated in terms of the amount of compound (I) administered, read-out: Weight adjusted ED50), 0.1 mg/kg; in the data set with Plasmodium yoelii (setting [1]), 0.23 mg/kg. The solubility in water result in the data set “Solubility in water” was “readily soluble in cold water”.
